The text below walks through data of patent publication US6403587B1, “Heteroaryl-hexanoic acid amide derivatives, their preparation and their use as selective inhibitors of MIP-1-α binding to its CCR 1 receptor” (Pfizer Inc., priority 1997, dated 2002).

Usually melting point stands for the temperature of the solid-liquid transition.

In the case of `CC(C)(O)CC[C@H](C[C@H](O)[C@H](Cc1cc(F)cc(F)c1)NC(=O)c1cnc2ccccc2n1)C(N)=O` [Example 315, Quinoxaline-2-carboxylic acid [4(R)-carbamoyl-1(S)-(3,5-difluoro-benzyl)-2(S),7-dihydroxy-7-methyl-octyl]-amide], the melting point lay within 162 to 163 °C.

In turn, `CC(C)(O)CC[C@H](C[C@H](O)[C@H](Cc1cc(F)cc(F)c1)NC(=O)c1cnc2ccccc2n1)C(=O)NO` [Example 320, Quinoxaline-2-carboxylic acid [1(S)-(3,5-difluoro-benzyl)-2(S),7-dihydroxy-4(R)-hydroxycarbamoyl-7-methyl-octyl]-amide] had a melting point of 98 to 100 °C.

On to `CC(C)(O)CC[C@H](C[C@H](O)[C@H](Cc1ccccc1)NC(=O)c1cnccc1C(F)(F)F)C(N)=O` [Example 323, N-(1(S)-Benzyl-4(R)-carbamoyl-2(S),7-dihydroxy-7-methyl-octyl)-4-trifluoromethyl-nicotinamide], for which the melting point is 131 to 135 °C. For `CC(C)(O)CC[C@H](C[C@H](O)[C@H](Cc1ccccc1F)NC(=O)c1cnc2ccccc2n1)C(=O)NO` [Example 326, Quinoxaline-2-carboxylic acid [1(S)-(2-fluoro-benzyl)-2(S),7-dihydroxy4(R)-hydroxycarbamoyl-7-methyl-octyl]-amide] the value was 130 to 131 °C; for `CC(C)(O)CC[C@H](C[C@H](O)[C@H](Cc1cccs1)NC(=O)c1cnc2ccccc2n1)C(N)=O` [Example 327, Quinoxaline-2-carboxylic acid (4(R)-carbamoyl-2(S),7-dihydroxy-7-methyl-1(S)-thiophen-2-ylmethyl-octyl)-amide], 158 to 159 °C; for `CC(C)(O)CC[C@H](C[C@H](O)[C@H](Cc1ccccc1F)NC(=O)c1cnc2ccccc2n1)C(N)=O` [Example 328, Quinoxaline-2-carboxylic acid [4(R)-carbamoyl-1(S)-(2-fluoro-benzyl)-2(S),7-dihydroxy-7-methyl-octyl]-amide], 147 to 148 °C. The compound `CC(C)(O)CC[C@H](C[C@H](O)[C@H](Cc1ccc(F)c(F)c1)NC(=O)c1cnc2ccccc2n1)C(=O)NO` [Example 329, Quinoxaline-2-carboxylic acid [1(S)-(3,4-difluoro-benzyl)-2(S),7-dihydroxy-4(R)-hydroxycarbamoyl-7-methyl-octyl]-amide] had a melting point of 150 to 153 °C.

Compound `CC(C)(O)CC[C@H](C[C@H](O)[C@H](Cc1ccc(F)c(F)c1)NC(=O)c1cnc2ccccc2n1)C(N)=O` [Example 330, Quinoxaline-2-carboxylic acid [4(R)-carbamoyl-1(S)-(3,4-difluoro-benzyl)-2(S),7-dihydroxy-7-methyl-octyl]-amide] came in with a melting point of 110 to 120 °C. Then `CC(C)(O)CC[C@H](C[C@H](O)[C@H](Cc1cccc2ccccc12)NC(=O)c1cnc2ccccc2n1)C(N)=O` [Example 331, Quinoxaline-2-carboxylic acid (4(R)-carbamoyl-2(S),7-dihydroxy-7-methyl-1(S)-naphthalen-1-ylmethyl-octyl)-amide], with 155 to 158 °C; and `CC(C)(O)CC[C@H](C[C@H](O)[C@H](Cc1cccc(F)c1)NC(=O)c1cnc2c(F)c(F)c(F)cc2c1)C(N)=O` [Example 332, 6,7,8-Trifluoro-quinoline-3-carboxylic acid [4(R)-carbamoyl-1(S)-(3-fluoro-benzyl)-2(S),7-dihydroxy-7-methyl-octyl]-amide], with 183 to 185 °C. Then `CC(C)(O)CC[C@H](C[C@H](O)[C@H](Cc1ccc2ccccc2c1)NC(=O)c1cnc2ccccc2n1)C(N)=O` [Example 333, Quinoxaline-2-carboxylic acid (4(R)-carbamoyl-2(S),7-dihydroxy-7-methyl-1(S)-naphthalen-2-ylmethyl-octyl)-amide], with 104 to 106 °C. Then `CC(C)(O)CC[C@H](C[C@H](O)[C@H](Cc1csc2ccccc12)NC(=O)c1cnc2ccccc2n1)C(N)=O` [Example 335, Quinoxaline-2-carboxylic acid (1(S)-benzo[b]thiophen-3-ylmethyl-4(R)-carbamoyl-2(S),7-dihydroxy-7-methyl-octyl)-amide], with 163 to 164 °C. Compound `NC(=O)C(Cc1ccc(O)cc1)CC(O)C(Cc1ccccc1)NC(=O)c1cnc2ccccc2n1` (stereo not shown) [Example 336, Quinoxaline-2-carboxylic acid [1-benzyl-4-carbamoyl-2-hydroxy-5-(4-hydroxy-phenyl)-pentyl]-amide] gave a melting point of 190.5 to 191.5 °C.
